Data set [1] has as its system passive cutaneous anaphylaxis (PCA). Description: Passive cutaneous anaphylaxis (PCA) in the rat with homologous antibodies (method of Goose and Blair). Format: in vivo. To be noted: 0.5 h, inhibition of spots areas, 30 minutes after challenge. The source says:
(§1) The novel compounds of the present invention are characterized by high antianaphylactic and antibronchospastic activity and by a low toxicity. The LD50 of the novel piperazine derivatives has been determined in the mouse, both ip and per os, following the method described by C. S. Weil, Biometrics, 8, 249 (1952). In order to evaluate the antianaphylactic activity of said novel compounds, the method of Goose and Blair was followed, in which passive cutaneous anaphylaxis (PCA) was induced in the rat with homologous antibodies [Immunology, 16, 749, (1969)].
Female albino rate were immunized intramuscularly with egg albumin and intraperitoneally with Haemophylus pertussis vaccine. Twelve days after treatment, the animals were bled and sera thus obtained were injected intradermally into another group of rats. Twenty-four hours later, the animals were challenged with an i.v. solution of ovoalbumin and Evans blue dye, and sacrificed after 30 minutes. The test drugs were given by different routes of administration and at different times before the challenge. Inhibition of spots areas (ED50) was determined.
(§2) In the Table which follows, the results obtained utilizing the above tests are reported. The LD50 and the DE50 in the PCA test are expressed in […]. The DE50 for the antibronchospastic activity (BSP) is expressed in μm/kg i.v. (bronchospasm induced by histamine (H) and acetylcholine (A)). In the TXA2 test, (C) is the concentration in μg/ml, whereas (I%) denotes the maximal inhibition percentage. In the PLA test, the DE50 is expressed in μM/kg i.v. (evaluated 5 and 10 minutes after administration).

Data set [2] deals with bronchospasm induced by histamine. Description: Inhibition of bronchospasm (BSP) induced by histamine in anaesthetized guinea pig (Konzett and Roessler). Format: in vivo. To be noted: Cavia porcellus, iv, 1 min, histamine 0.5-25 μg/kg i.v., one minute after injection of drug, read-out: BSP, ED50 H. Here is the method:
(§3) The antibronchospastic activity was determined according to the method of Konzett and Roessler, Arch., Exp. Path. Pharmakol., 195, 71 (1940), entailing the inhibition of bronchospasm induced in anaesthesized guinea pig by histamine and acetylcholine. For this purpose, the bronchospasms were induced by administering intravenously to the animals 0.5-25 μg/kg of hystamine or 2.5-10 μg/kg of acetylcholine. Inhibition (ED50) was determined one minute after injection of the drug under test.
as §2

A short description of data set [3]: Acute toxicity LD50 in the mouse (method of Weil). To be noted: in vivo.
From the text: as §1, §2

Data set [4] relates to passive lung anaphylaxis (PLA). Put plainly: Passive lung anaphylaxis (PLA): antigen induced bronchoconstriction in passively sensitized rat (method of Greenberg et al). Format: in vivo. Particulars: iv, i.v. Here is the method: Inhibition of passive lung anaphylaxis (PLA) was studied in a model of antigen induced bronchoconstriction in sensitized rat, according to the method described by Greenberg et al, Can. J. Physiol. Pharmacol., 57, 48 (1979). Female albino rate were passively sensitized by intravenous injection of homologous anti-egg albumin serum. Twenty-four hours later the rats were anaesthetized with pentobarbital (35 mg/kg i.p.) and spontaneous respiration was arrested by administration of tubocurarine (0.75 mg/kg i.v.).
Bronchocostriction was induced by egg albumin intravenously administered and measured by the Konzett and Roessler method Arch. Exp. Path. Pharmakol., 195, 71, (1940). The compounds were injected intravenously one minute before antigen challenge. The inhibitory effect (ED50) was evaluated 5 and 10 minutes after i.v. administration of the drugs under test.
as §2

Data set [5] has as its system bronchospasm induced by acetylcholine. Put plainly: Inhibition of bronchospasm (BSP) induced by acetylcholine in anaesthetized guinea pig (Konzett and Roessler). Format: in vivo. Particulars: Cavia porcellus, iv, 1 min, acetylcholine 2.5-10 μg/kg i.v., one minute after injection of drug. As to the method:
as §3, §2

The test system of a further data set is TXA2. Put plainly: TXA2 inhibition in perfused guinea-pig lungs challenged with bradykinin (method of Berti et al). To be noted: C = 10 μg/ml, bradykinin 0.25-0.5 μg. Here is the method: The TXA2 inhibition was evaluated according to the method of Berti et al Brit. J. Pharmacol., 68, 467 (1980). Lungs from female or male guinea-pigs were perfused through the pulmonary artery with Krebs bicarbonate (5 ml/min, 37° C.). The pulmonary outflow superfused strips of rabbit mesenteric artery and rabbit aorta in cascade, in order to monitor TXA2 activity. These tissues were superfused with a mixture of receptor antagonist and indomethacin to […] their selectivity and sensitivity. Lungs were challenged with a single injection of bradykinin (0.25-0.5 μg) which is known to increase generation of TXA2 from the pulmonary tissue. The novel compounds of the invention were perfused at different concentrations through the lungs 30 and 60 minutes before agonists.
as §2

Where [6] appears, read: 5 min, evaluated 5 minutes after administration, read-out: PLA, ED50 5'.
[7] abbreviates: 10 min, evaluated 10 minutes after administration, read-out: PLA, ED50 10'.

Where a name gives a salt, the structure may show the parent alone. Read-outs that look alike come from different tables or passages of the source.

In general, ED50 refers to the midpoint of the dose-response relation. For orientation: LD50 means the dose at which mortality reaches 50%.

With `CNc1cccc(NC(=O)CCN2CCN(C(c3ccccc3)c3ccccc3)CC2)c1` [Compound 1, 3-(4-benzhydryl-1-piperazinyl)-N,3-methylaminophenylpropionamide], the ED50 in data set [1] amounted to 13 µmol/kg; in data set [2], 0.25 µmol/kg. In addition, the LD50 in data set [3] (ip, read-out: LD50 ip) is 240 µmol/kg; in data set [3] (po, per os, read-out: LD50 os) it was 580 µmol/kg.
Regarding `CN(C)c1cccc(NC(=O)CCN2CCN(C(c3ccccc3)c3ccccc3)CC2)c1` [Compound 2, 3-(4-benzhydryl-1-piperazinyl)-N,3-dimethylaminoophenylpropionamide trihydrochloride hemihydrate], the ED50 in data set [1] was over 69 µmol/kg. Further, the LD50 in data set [3] (ip, read-out: LD50 ip) amounted to 260 µmol/kg; in data set [3] (po, per os, read-out: LD50 os), 340 µmol/kg.
Take `CN(C)c1ccc(NC(=O)CCN2CCN(C(c3ccccc3)c3ccccc3)CC2)cc1` [Compound 3, 3-(4-benzhydryl-1-piperazinyl)-N,4-dimethylaminophenylpropionamide]: the ED50 was 0.02 µmol/kg in data set [4] (setting [6]); 0.02 µmol/kg in data set [4] (setting [7]); 25 µmol/kg in data set [1]; 1.1 µmol/kg in data set [2]; 0.8 µmol/kg in data set [5]. Moreover, in data set [3] (po, per os, read-out: LD50 os), the LD50 is over 7000 µmol/kg.
Consider `Nc1cccc(NC(=O)CCN2CCN(C(c3ccccc3)c3ccccc3)CC2)c1` [Compound 4, 3-(4-benzhydryl-1-piperazinyl)-N,3-aminophenylpropionamide], for which the ED50 in data set [4] (setting [6]) is 0.04 µmol/kg; in data set [4] (setting [7]), 0.08 µmol/kg; in data set [1], 8 µmol/kg; in data set [2], 0.21 µmol/kg; in data set [5] it was 0.4 µmol/kg. In addition, the LD50 in data set [3] (po, per os, read-out: LD50 os) is 5000 µmol/kg. The “TXA2 I % (maximal inhibition percentage)” value in the data set on TXA2 came to 47%.
Take `Nc1ccc(NC(=O)CCN2CCN(C(c3ccccc3)c3ccccc3)CC2)cc1` [Compound 5, 3-(4-benzhydryl-1-piperazinyl)-N,4-aminophenylpropionamide]: the values for the ED50 in data set [1] and in data set [2] were 28 µmol/kg and 0.23 µmol/kg, respectively. In data set [3] (po, per os, read-out: LD50 os), the LD50 amounted to 7200 µmol/kg.
For the compound `CN(C(=O)CCN1CCN(C(c2ccccc2)c2ccccc2)CC1)c1cccc(N)c1` [Compound 6, 3-(4-benzhydryl-1-piperazinyl)-N,3-aminophenvl-N-methylpropionamide], the ED50 turned out to be 0.65 µmol/kg in data set [4] (setting [6]); 0.69 µmol/kg in data set [4] (setting [7]); 10 µmol/kg in data set [1]; 0.12 µmol/kg in data set [2]; 0.4 µmol/kg in data set [5]. For the same compound, the LD50 in data set [3] (ip, read-out: LD50 ip) is over 2330 µmol/kg; in data set [3] (po, per os, read-out: LD50 os), over 7000 µmol/kg. For the same compound, in the data set on TXA2, the “TXA2 I % (maximal inhibition percentage)” value came to 0.8%.
With `CNC(=O)Nc1ccc(NC(=O)CCN2CCN(C(c3ccccc3)c3ccccc3)CC2)cc1` [Compound 7, 3-(4-benzhydryl-1-piperazinyl)-N,4-methylureidophenylpropionamide], in data set [1], the ED50 was determined as 73 µmol/kg. Also, the LD50 in data set [3] (ip, read-out: LD50 ip) was 1750 µmol/kg; in data set [3] (po, per os, read-out: LD50 os), over 5900 µmol/kg.
Regarding `CN(C)c1ccc(NC(=O)CCCN2CCN(C(c3ccccc3)c3ccccc3)CC2)cc1` [Compound 8], the ED50 in data set [4] (setting [6]) is 0.84 µmol/kg; in data set [4] (setting [7]), 0.84 µmol/kg; in data set [1], 10 µmol/kg; in data set [2], 1.1 µmol/kg; in data set [5] it was over 3 µmol/kg. For the same compound, the LD50 in data set [3] (ip, read-out: LD50 ip) stood at 230 µmol/kg; in data set [3] (po, per os, read-out: LD50 os), 430 µmol/kg.

The record behind these values is US4675319A, “Antianaphylactic and antibronchospastic piperazinyl-(N-substituted phenyl)carboxamides, compositions and use” (Recordati S. A. Chemical and Pharmaceutical Company, priority 1985, dated 1987).
